# Test results from paper PMC11012005 (International Journal of Molecular Sciences, 2024).
# Non-standard residues stand in square brackets, D forms with d. Residues, ends and D or L forms follow the SMILES beside them.
# What was measured:
# [1] = biological target: T1, human KOR (Homo sapiens, UniProt P41145); assay: Radioligand competition binding, [3H]U69,593, CHO-hKOR cell membranes; details: for Ki: CHO-hKOR membranes, [3H]U69,593 1 nM, mean ± SEM, n = 3, read-out: Opioid Receptor Binding (Ki, nM) KOR
# T1 construct: expressed in transfected cells; host or cells: CHO cells (CHO-hKOR), gift of Dr. Lawrence Toll, SRI International
# [2] = biological target: T2, human NOP receptor (Homo sapiens, UniProt P41146); assay: Radioligand binding, [3H]nociceptin, CHO-hNOP cell membranes; details: for Ki: CHO-hNOP membranes, [3H]nociceptin 0.1 nM, n = 3, read-out: Opioid Receptor Binding (Ki, nM) NOP
# T2 construct: expressed in transfected cells; host or cells: CHO cells (CHO-hNOP), gift of Dr. Lawrence Toll, SRI International
# [3] = biological target: T3, human MOR (Homo sapiens, UniProt P35372); assay: [35S]GTPγS binding assay, CHO-hMOR cell membranes; assay type: biochemical; details: for % stim.: relative to reference MOR agonist DAMGO, mean ± SEM, n = 3–4
# T3 construct: expressed in transfected cells; host or cells: CHO cells (CHO-hMOR), gift of Dr. Lawrence Toll, SRI International
# Source text: All data are presented as mean ± SEM. A p < 0.05 was considered statistically significant.
# [4] = test system: mice; details: s.c., 31 µmol/kg (10 mg/kg); cited from earlier work
# [5] = test system: mice; details: repeated s.c. administration, 15 µmol/kg (5 mg/kg); cited from earlier work
# [6] = biological target: T3, human MOR; assay: Radioligand competition binding, [3H]DAMGO, CHO-hMOR cell membranes; details: read-out: Opioid Receptor Binding (Ki, nM) MOR
# [7] = biological target: T4, human DOR (Homo sapiens, UniProt P41143); assay: Radioligand competition binding, [3H]DPDPE, CHO-hDOR cell membranes
# T4 construct: expressed in transfected cells; host or cells: CHO cells (CHO-hDOR), gift of Dr. Lawrence Toll, SRI International
# [8] = test system: mice; assay: Rotarod test after s.c. administration; assay type: in vivo; details: 7.8 and 39 µmol/kg, any time point, vs. saline
# Experimental: (§1) Experiments were performed with male CD1 mice (8–10 weeks old, 30–35 g body weight) purchased from Janvier Labs (Le Genest-Saint-Isle, France). All animal care and experimental procedures were in accordance with the ethical guidelines for the animal welfare standards of the European Communities Council Directive (2010/63/EU) and were approved by the Committee of Animal Care of the Austrian Federal Ministry of Science and Research. Mice were group-housed (maximum of 5 animals per cage) in a temperature- (21–22 °C) and humidity-controlled (60–70%) specific pathogen-free room with a 12 h light/dark cycle and with free access to food and water. LENART01 and naloxone were prepared in sterile physiological 0.9% saline solution. Tested doses of LENART01 were 0.78, 3.9, 7.8 and 39 µmol/kg (1, 5, 10 and 50 mg/kg, respectively). LENART01 or vehicle (saline) were s.c. administered in a volume of 10 µL/g body weight.
# Animals were accustomed to the equipment in two training sessions (30 min apart) one day before testing. […] The time spent on the drum was recorded for each mouse before (baseline) and after the s.c. administration of saline or test compound (i.e., 30, 60 and 120 min). […] The rotarod data are expressed as percentage (%) changes from the rotarod latencies obtained before (baseline, B) and after drug administration (test, T) and were calculated as follows: 100 × (T/B). […]
# [9] = test system: mice; assay: Naloxone-precipitated withdrawal syndrome after chronic s.c. treatment; assay type: in vivo; details: 7.8 µmol/kg s.c. twice daily for 5 days; naloxone 1 mg/kg s.c. two hours after last injection; vs. saline
# Experimental: as §1, with “Tested doses of LENART01 were 0.78, 3.9, 7.8 and 39 µmol/kg (1, 5, 10 and 50 mg/kg, respectively). LENART01 or vehicle (saline) were s.c. administered in a volume of 10 µL/g body weight.” left out
# (§2) Opioid physical dependence was assessed using naloxone-induced withdrawal syndrome in mice as described previously. […] Animals were immediately placed in clear acrylic cylinders, and signs of opioid withdrawal were recorded for 15 min. Monitored behaviors included vertical jumps, paw tremor, head shakes, urine output, the presence/absence of diarrhea, feces output and body weight loss. For each mouse, a global withdrawal score was calculated by summing the values obtained for each sign (one point was assigned to every 3 jumps and 5 paw tremors, respectively, whereas all other signs were given the absolute values recorded during the test). […]
# [10] = Body weight changes during chronic s.c. treatment; assay type: in vivo, mice; details: chronic administration of 7.8 µmol/kg s.c. twice daily for 5 days, vs. saline
# Experimental: as §1, with “Tested doses of LENART01 were 0.78, 3.9, 7.8 and 39 µmol/kg (1, 5, 10 and 50 mg/kg, respectively). LENART01 or vehicle (saline) were s.c. administered in a volume of 10 µL/g body weight.” left out
# as §2
# [11] = Pharmacokinetic study: detection in brain homogenate by LC-DAD-MS (BBB permeability); assay type: in vivo; details: 7.8 and 39 µmol/kg s.c., mice, brains two hours after treatment
# Experimental: as §1
# Two hours after the s.c. administration of LENART01 (doses of 7.8 and 39 µmol/kg), the mice were sacrificed and the brains were removed, washed with sterile physiological 0.9% saline and frozen in dry ice until use. […] The MS spectra were recorded in the negative ion mode only. The UV spectra were recorded over the range of 200–600 nm. […] The presence of the analyzed compound was checked by the monitoring of its pseudomolecular ion eluting at ca. 10 min. […]
compound,measurement,setting,value
"C[C@@H](NC(=O)[C@@H](N)Cc1ccc(O)cc1)C(=O)N[C@@H](Cc1ccccc1)C(=O)NCC(=O)N[C@@H](Cc1ccc(O)cc1)C(=O)N1CCC[C@H]1C(=O)N[C@@H](CO)C(N)=O [Dermorphin, reference compound]",Ki,[1],2710 ± 873 nM
same,Ki,[2],> 10000 nM
same,Specific binding to human NOP receptor,"[2]; at the concentration of 10 µM, [3H]nociceptin",no substantial binding
same,% stim.,[3],104 ± 8%
CN1CC[C@]23c4c5ccc(O)c4O[C@H]2[C@@H](O)C=C[C@H]3[C@H]1C5 [morphine],Effect on time on the rotarod,[4],significantly reduced time on the rotarod
same,Naloxone-induced withdrawal syndrome,[5],significant naloxone-induced withdrawal syndrome
CSCC[C@H](NC(=O)[C@H](Cc1ccccc1)NC(=O)[C@H](Cc1c[nH]cn1)NC(=O)CNC(=O)[C@H](CO)NC(=O)[C@@H]1CCCN1C(=O)[C@H](Cc1ccc(O)cc1)NC(=O)CNC(=O)[C@H](Cc1ccccc1)NC(=O)[C@@H](C)NC(=O)[C@@H](N)Cc1ccc(O)cc1)C(N)=O [LENART01] (H-Y[dA]FGYPSGHFM-NH2),Ki,[6],11 ± 1.5 nM
same,Ki,"[7]; CHO-hDOR membranes, [3H]DPDPE 1 nM, mean ± SEM, n = 3, read-out: Opioid Receptor Binding (Ki, nM) DOR",227 ± 47 nM
same,Selectivity Ki Ratios DOR/MOR,[7]; Ki ratio DOR/MOR,21
same,Ki,[1],1310 ± 226 nM
same,Selectivity Ki Ratios KOR/MOR,[1]; Ki ratio KOR/MOR,119
same,Ki,[2],> 10000 nM
same,Selectivity Ki Ratios NOP/MOR,[2]; Ki ratio NOP/MOR,>900
same,EC50,[3],48.5 ± 10.6 nM
same,% stim.,[3],110 ± 7%
same,Effect on rotarod latencies (motor behavior),[8],no significant alterations in the rotarod latencies
same,Naloxone-precipitated withdrawal signs,[9],did not induce withdrawal signs
same,Effect on body weights,[10],did not have any significant effect on the body weights
same,Transport across the BBB (signal in brain homogenate),[11],no detectable signal
"C[C@@H](NC(=O)[C@@H](N)Cc1ccc(O)cc1)C(=O)NCC(=O)N(C)[C@@H](Cc1ccccc1)C(=O)NCCO [DAMGO, reference compound]",% stim.,[3],100%
